Series [1] has as its system conversion of E1S to E2 (sulfatase activity) in T-47D breast cancer cell line. The series is described as follows: Conversion of [3H]-E1S to E2 in T-47D human mammary cancer cells. It counts as cell-based. Particulars: for inhibition at 0.005 µM / inhibition at 0.5 µM / inhibition at 50 µM / IC50: Homo sapiens, T47D; for inhibition at 0.005 µM / inhibition at 0.5 µM / inhibition at 50 µM: mean ± SEM; for IC50: non-linear regression analysis; for E2 formed: 5×10^−9 mol/l [3H]-E1S, control 1805 ± 152. As to the method: (§1) [6,7-^3H(N)]-estrone sulfate (^3H-E1S), ammonium salt (sp. act. 53 Ci/mmol) and [4-^14C]-estradiol (^14C-E2) (sp. act. 57 mCi/mmol) were purchased from New England Nuclear Division (DuPont de Nemours, Les Ulls, France). The purity of the radioisotopes was assessed by thin-layer chromatography (TLC) in the appropriate system before use. E1S, ammonium salt, unlabeled E1and E2, (analytical grade) were obtained from Sigma-Aldrich Chimle, (St Quentin Fallavier, France). 17-deacetylnorgestimate (NGMN; 13-ethyl-17-hydroxy-18,19-dinor-17α-pregn-4-en-20-yn-3-one oxime) was a gift from R. W. Johnson Pharmaceutical Research Institute, Medicinal Chemistry Department, (Raritan, N.J., USA); medroxyprogesterone acetate (MPA, 17α-acetoxy-6α-methylprogesterone) was obtained from Sigma-Aldrich Chimie. All other chemicals were of the highest grade commercially available.
(§2) The hormone-dependent MCF-7 and T-47D human mammary cancer cell lines were grown in Eagle's Minimal Essential Medium (MEM) buffered with 10 mmol/l HEPES (pH 7.6), supplemented with 2 mmol/l L-glutamine, 100 U/ml penicillin-streptomycin and 5% fetal calf serum (FCS) (A.T.G.C., Marne-la-Vallée, France) for T-47D, or 10% FCS for MCF-7 cells, and incubated at 37° C. n a humidified atmosphere of 5% CO2. Media were changed twice a week. The cells were passed every 10-12 days and replated in 75 cm^2 flasks (A.T.G.C.) at 3×10^6 cells/flask. Four days before the experiments, the cells were transferred to MEM containing 5% steroid-depleted treated FCS. The FCS had been treated overnight at 4° C. with dextran-coated charcoal (DCC)(0.1-1% w/v, DCC-FCS). The MCF-7 and T-47D cell lines used herein were deposited in accordance with the Budapest Treaty under the references MCF7_JJPRD and T47D_JJPRD on May 17, 2002 at The Belgian Co-ordinated Collections of Micro-organisms (BCCM), Laboratorium voor Moleculaire Biologie, Universiteit Gent, K. L. Ledeganckstraat 35, B-9000 Gent, Belgium and are publicly available under accession numbers LMBP 5862CB and LMBP 5863CB, respectively.
(§3) Preconfluent cells were incubated for 4 hours at 37° C. in MEM-DCC-FCS with the addition of 5×10^−9 mol/l of [^3H]-E1S, alone (control cells) or in combination with the different compounds: NGMN or MPA, dissolved in ethanol (final concentration <0.2%), at a range of concentrations of 5×10^−5-5×10^−9 mol/l. Control cells received ethanol vehicle only. After 24 hours, the medium was removed, the cells washed twice with ice-cold Hank's Buffered Saline Solution (HBSS, calcium-magnesium-free)(A.T.G.C.) and harvested by scraping. After centrifugation, the pallet was treated with 80% ethanol and the radioactivity extracted for at least 24 h at −20° C. The cellular radioactivity uptake was determined in the ethanolic supernatant and the DNA content in the remaining pellet was evaluated according to Burton Biochem Journal 62:315-323, 1956. [^14C]-E2 (5,000 dpm) was added to monitor analytical losses and unlabeled E1and E2 (50 μg) were used as carriers and reference indicators. In the total ethanolic extracts, E2 was isolated by thin layer chromatography (TLC) on silica gel 60F254 (Merck, Darmstadt, Germany), developed with chloroformi-ethylacetate (4:1, v/v) system. After visualization of the estrogens under U.V. at 254 nm, the appropriate areas were cut off into small pieces, placed in liquid scintillation vials with ethanol (0.5 ml) and allowed to extract for […]. Three ml of Opti-fluor (Packard, Rungis, France) were added and the vials were analyzed for ^3H and ^14C contents with quench correction by external standarization. The quantitative evaluation of E2 was calculated as a percentage of the total radioactivity associated with the cells and then expressed as fmol of E2 formed/mg DNA from E1S.
(§4) Data are expressed as the mean±standard error of the mean (SEM) values. Student's t-test was used to assess the significance of the differences between means; p values ≦0.05_were considered significant. […]

In series [2] the test system is conversion of E1S to E2 (sulfatase activity) in MCF-7 breast cancer cell line. The experiment in a line: Conversion of [3H]-E1S to E2 in MCF-7 human mammary cancer cells. The class given is cell-based. Particulars: for inhibition at 0.005 µM / inhibition at 0.5 µM / inhibition at 50 µM / IC50: Homo sapiens; for inhibition at 0.005 µM: MCF7, compound conc 0.005 × 10^−6 mol/l; for inhibition at 0.005 µM / inhibition at 0.5 µM / inhibition at 50 µM: mean ± SEM; for inhibition at 0.5 µM: MCF7, compound conc 0.5 × 10^−6 mol/l; for inhibition at 50 µM: MCF7, compound conc 50 × 10^−6 mol/l; for IC50: MCF7, non-linear regression analysis; for E2 formed: 5×10^−9 mol/l [3H]-E1S, control 2185 ± 101. The method, then:
as §1, §2, §3, §4

The conditions of series [3]: humans; major metabolite; cited from earlier work.
The mark [4] stands for this setting: compound conc 0.005 × 10^−6 mol/l.
The mark [5] stands for this setting: compound conc 0.5 × 10^−6 mol/l.
[6] abbreviates: compound conc 0.005 × 10^−6 mol/l, mean of 3 experiments.

Some results are limits rather than exact numbers.

As a reminder, the inhibition is the drop in the measured response relative to a control, in per cent. The IC50 is the concentration that gives 50% inhibition.

In the case of `C#C[C@]1(O)CC[C@H]2[C@@H]3CCC4=C/C(=N/O)CC[C@@H]4[C@H]3CC[C@@]21CC` [NGMN, 13-ethyl-17-hydroxy-18,19-dinor-17α-pregn-4-en-20-yn-3-one oxime], the inhibition at 0.005 µM in series [1] (setting [4]) is 43%; in series [2], 25%. The inhibition at 0.5 µM in series [1] (setting [5]) was 74%; in series [2], 57%. The inhibition at 50 µM in series [1] (compound conc 50 × 10^−6 mol/l) was 97%; in series [2], 96%. For the same molecule, the IC50 in series [1] was found to be 12.7 nM; in series [2] it was 178 nM. Further, the E2 formed is reported as 1029 fmol/mg DNA in series [1] (setting [6]); 469 fmol/mg DNA in series [1] (setting [5]); 54 fmol/mg DNA in series [1] (compound conc 50 × 10^−6 mol/l); 1639 fmol/mg DNA in series [2] (setting [4]); 940 fmol/mg DNA in series [2] (setting [5]); 87 fmol/mg DNA in series [2] (compound conc 50 × 10^−6 mol/l).
On to `C#C[C@]1(OC(C)=O)CC[C@H]2[C@@H]3CCC4=CC(=NO)CC[C@@H]4[C@H]3CC[C@@]21CC` (mixture of isomers) [norgestimate], for which the “fraction of norgestimate converted to norelgestromin in vivo” value in series [3] is ≥ 80%.
With `CC(=O)O[C@]1(C(C)=O)CC[C@H]2[C@@H]3C[C@H](C)C4=CC(=O)CC[C@]4(C)[C@H]3CC[C@@]21C` [MPA, 17α-acetoxy-6α-methylprogesterone], the values for the inhibition at 0.005 µM in series [1] (setting [4]) and in series [2] were 31% and 6%, respectively. For the same molecule, the inhibition at 0.5 µM was 47% in series [1] (setting [5]) and 20% in series [2]. The inhibition at 50 µM in series [1] (compound conc 50 × 10^−6 mol/l) is 61%; in series [2], 63%. Also, the IC50 in series [1] was 2150 nM; in series [2] it was 26100 nM. Moreover, the E2 formed in series [1] (setting [6]) turned out to be 1245 fmol/mg DNA; in series [1] (setting [5]), 957 fmol/mg DNA; in series [1] (compound conc 50 × 10^−6 mol/l), 704 fmol/mg DNA; in series [2] (setting [4]), 2054 fmol/mg DNA; in series [2] (setting [5]), 1748 fmol/mg DNA; in series [2] (compound conc 50 × 10^−6 mol/l), 808 fmol/mg DNA.
